{"source": "patent US20140206028A1", "about": "“Stable Electrically Active Neurons from Adult Tissue” (University of Central Florida Research Foundation, Inc., priority 2011, published 2014)", "test_system": "adult rat hippocampal neurons", "assay": "Whole-cell patch-clamp electrophysiology of cultured adult hippocampal neurons (electrical recovery)", "assay_type": "cell-based", "conditions": "cycloheximide during incubation of confluent neurons with 25 μM glutamate", "method": "Whole-cell, patch-clamp recordings were performed at room temperature. pH was adjusted to 7.3 with HEPES acid and base, ion concentrations with NaCl to approximately 130 mM, and osmolarity of 290-300 mOsm. Cells were visualized on the stage with a Zeiss Axioscope, 2 FS Plus, upright microscope in maintenance culture medium. Patch pipettes (4-8 M′Ω) were filled with intracellular solution (K-gluconate 140 mM, EGTA 1 mM, MgCl2 2 mM, Na2ATP 5 mM, HEPES 10 mM; pH 7.2), osmolarity approximately 260 mOsm. Voltage clamp and current clamp experiments were performed with a Multiclamp 700A (MDS Analytical Devices) amplifier. Signals were filtered at 3 kHz and digitized at 20 kHz with an Axon Digidata 1322A interface. Data recordings and analysis were performed with pClamp software. Whole-cell capacitance and series resistance were compensated electronically. Only cells with access resistance less than 22 M′Ω were analyzed. Inward currents that had the characteristics of fast sodium currents, and outward currents that had the characteristics of potassium currents were measured in voltage clamp mode using voltage steps of 10 mV from a −70 mV holding potential. Action potentials were measured with 1 s depolarizing current injections to elicit action potentials from a −70 mV holding potential. Cells were morphologically selected for electrophysiological characterization. […]", "data": [{"smiles": "C[C@@H]1C[C@@H]([C@H](O)CC2CC(=O)NC(=O)C2)C(=O)[C@@H](C)C1", "note": "[cycloheximide]", "values": [{"measurement": "glutamate-induced improvements in neuronal electrical activity", "result": "completely blocked"}]}]}
